Results as given in patent US10662555B2, “Polyimide fiber and method for producing polyimide fiber” (I.S.T Corporation, priority 2016, dated 2020).

What was measured:
[1] = octanol-water partition coefficient (Log P) at 25° C., shake flask method; settings: for Log P: octanol-water partition coefficient at 25° C.; for logP: octanol/water
[2] = conjugate acid in water at 25° C.; cited from earlier work

SMILES | Log P [1] | logP [1] | also measured
C1CNCCN1 [Piperazine, piperazine] | −1.5 |  | 
CC(O)CN(CC(C)O)CC(C)O (centres unmarked) [triisopropanolamine] |  |  | logP (physchem): -0.015
Cc1cccnc1 [β-picoline] | 1.2 |  | 
Cc1nccn1C [1,2-dimethyl-1,3-diazole] |  | 0.11 | 
CCCCN(CCCC)CCCC [Tributylamine, tributylamine] | >2.79 | > 2.79 | 
CCCN(CCC)CCC [Tripropylamine, tripropylamine] | 2.79 |  | 
CCN(CC)CC [Triethylamine, triethylamine] |  | 1.45 | 
Cc1ncc[nH]1 [2-methyl-1,3-diazole] | 0.24 |  | 
Cn1ccnc1 [1-methyl-1,3-diazole] |  | -0.19 | pKa [2]: 6.95
